Results from patent US20220048878A1, “IMPROVEMENT IN OR RELATING TO ORGANIC COMPOUNDS” (GIVAUDAN SA, priority 2018, published 2022).
Where two headings read alike, the source gives them in different places.

Experiments:
[1] = cited from earlier work
male rats [2] = experiment: Repeated dose 28-day oral toxicity study in rats (OECD Guideline 407), reproductive organs and sperm analysis; format: in vivo; conditions: for Motile Sperms (%) / Sperm cells with normal morphology (count/total) / Sperm cells with normal morphology (percent) / Number of sperms per gram: male rats
Description: An isomeric mixture obtained according to Example 1 b was tested in a repeated dose 28-day oral toxicity study in rats according to OECD Guideline 407 (OECD, Paris, October 2008). Groups of animals (n=5) were fed with a diet containing the test item to obtain a daily ingested dose of 100 mg/kg body weight/day, 300 mg/kg body weight/day and 1000 mg/kg body weight/day. The animals were treated for 28 days. After this period, they were sacrificed and their organs were examined by pathological examination for gross lesions, weight changes and further investigated by histopathology. The seminal fluid from the epididymis was sampled and analyzed microscopically for number, morphology and motility of sperms.
All treated groups were compared to the control group with a Dunnett-test based on pooled variance and a Steel-test.

male rats [3] = conditions: cited from earlier work
[4] = rats, 100, 300 and 1000 mg/kg body weight/day, 28 days
[5] = male rats, 1000 mg/kg body weight per day
[6] = male rats, 300 or 1000 mg/kg body weight per day

Compound: CC1CCOC(c2ccccc2)C1 (stereo not drawn) [Doremox®, 4-methyl-2-phenyltetrahydro-2H-pyran]
- Lastingness compared to Rose Oxide ([1]; background statement): too long-lasting compared to Rose Oxide

Compound: CCC(C)=CC1CC(C)CCO1 (stereo not drawn) [Example 1b, 4-methyl-2-(2-methylbut-1-en-1-yl)tetrahydro-2H-pyran]
- Effect on key parameters of male fertility (male rats [2]; 28 days, up to 1000 mg/kg bw/d): no effect
- Difference in sperm parameters between control group and treated groups (male rats [2]; Dunnett-test and Steel-test, p=0.05 significance level): No significant differences
- Motile Sperms (%) (male rats [2]; 100 mg/kg bw/d, 28 days): 63 ± 12%
- Sperm cells with normal morphology (count/total) (male rats [2]; 100 mg/kg bw/d, 28 days): 156/246
- Sperm cells with normal morphology (percent) (male rats [2]; 100 mg/kg bw/d, 28 days): (63.4%)
- Motile Sperms (%) (male rats [2]; 300 mg/kg bw/d, 28 days): 47 ± 13%
- Sperm cells with normal morphology (count/total) (male rats [2]; 300 mg/kg bw/d, 28 days): 170/210
- Sperm cells with normal morphology (percent) (male rats [2]; 300 mg/kg bw/d, 28 days): (81.0%)
- Motile Sperms (%) (male rats [2]; 1000 mg/kg bw/d, 28 days): 53 ± 23%
- Sperm cells with normal morphology (count/total) (male rats [2]; 1000 mg/kg bw/d, 28 days): 158/197
- Sperm cells with normal morphology (percent) (male rats [2]; 1000 mg/kg bw/d, 28 days): (80.2%)
- Number of sperms per gram (male rats [2]; n = 5, 100 mg/kg bw/d in diet, 28 days): 3.9 ± 0.9 × 10^8
- Number of sperms per gram (male rats [2]; n = 5, 300 mg/kg bw/d in diet, 28 days): 4.0 ± 0.9 × 10^8
- Number of sperms per gram (male rats [2]; n = 5, 1000 mg/kg bw/d in diet, 28 days): 4.0 ± 1.9 × 10^8
- Macroscopic changes to reproductive organs (male rats [2]; [4]): no macroscopic changes
- Weight of the reproductive organs versus control group (male rats [2]; [4]): not different from the control group

Compound: CC(C)=CC1CC(C)CCO1 (racemic) [Rose Oxide, 4-methyl-2-(2-methylprop-1-en-1-yl)tetrahydro-2H-pyran]
- Effects on sperm formation (male rats [3]; 28 days, OECD guideline 407, middle (300 mg/kg bw/d) and high (1000 mg/kg bw/d) dose): clear-cut effects on sperm formation
- Classification (REACH/ECHA) (male rats [3]; classification provided by companies to ECHA): CMR2
- Severity of immature ducts in distal corpus and/or cauda epididymis (histopathology) (male rats [3]; male rats, 300 mg/kg body weight per day): minimal to slight
- Severity of immature ducts in distal corpus and/or cauda epididymis (histopathology) (male rats [3]; [5]): slight to severe
- Weight increase of the epididymis, absolute (male rats [3]; [5]): 33%
- Weight increase of the epididymis, relative (male rats [3]; [5]): 26%
- Sperm function and morphology in the cauda epididymis (male rats [3]; [6]): adversely affected
- Sperm numbers (male rats [3]; [6]): significantly reduced
- Time to evaporate on a smelling strip ([1]; smelling strip): ≤ 30 min

Compound: CCC(C)=C[C@@H]1C[C@H](C)CCO1 (relative stereo) [rel-(2S,4R)-4-methyl-2-(2-methylbut-1-en-1-yl)tetrahydro-2H-pyran]
- Suppression of sperm formation (male rats [2]; rats): does not suppress sperm formation
